{"source": "patent US20220313620A1", "about": "“COMPOSITION FOR PREVENTING AND TREATING TAUOPATHIES” (SERVICIO ANDALUZ DE SALUD, priority 2019, published 2022)", "tested_on": "mTOR", "experiment": "Hypothalamic mTOR phosphorylation (western blot) after acute oral gavage", "type": "in vivo", "conditions": "oral 500 mg/kg, adult male Wistar rats, hypothalamus, FIG. 3F", "procedure": "After 18 hours of fasting, D-Pinitol dissolved in water was administered acutely by gavage (100 mg/kg in a first study, and 500 mg/kg in a subsequent study). After administration, the animals were sacrificed in groups at different times (being time 0 the administration of D-Pinitol). For the first study (100 mg/kg), groups of animals were sacrificed at times: 10, 20, 30, 60, 120, 240 and 360 minutes after administration; for the second study (500 mg/kg), animals were sacrificed at times: 60, 120 and 240 minutes after administration. As a control group, a group was administered only with water (by gavage). Animals were anesthetized with sodium pentobarbital (50 mg/Kg, i.p.), blood, brain and liver samples were collected. Blood was centrifuged (2100 g for 8 min, 4° C.) and the plasma kept for further analysis. Liver and brain samples were flash-frozen in liquid N2, then stored at −80° C. until further analysis. Brain extract. […] The expression of protein including mTOR (289 kDa) and Adaptin (100 kDa) were analysed by western blot. […] Bands were quantified by densitometric analysis using ImageJ software (Rasband, WS, Image), US National Institutes of Health, Bethesda, Md., USA)."}
{"compound": "COC1[C@@H](O)[C@@H](O)C(O)[C@H](O)[C@H]1O", "note": "(stereo partly drawn) [DPIN, (1S,2S,4S,5R)-6-methoxycyclohexane-1,2,3,4,5-pentol]", "values": [{"measurement": "hypothalamic mTOR signaling through its phosphorylation", "value": "activation"}]}
